Laboratory results: PubChem BioAssay (NCI)
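Step 1: Grow cells in 96-well plates. Step 2: Expose to compound for 48 hours at 5 concentrations. Step 3: Interpolate endpoints linearly; if unreached, use highest concentration. At the GI50, growth is halved. TGI marks complete inhibition of growth.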

Assays:
Assay in all cases: NCI tumour cell line growth inhibition, 48 h
SR leukemia = system: SR leukemia
SNB-75 CNS = system: SNB-75 CNS
OVCAR-3 ovarian = system: OVCAR-3 ovarian
TK-10 renal = system: TK-10 renal
HCT-15 colon = system: HCT-15 colon
MOLT-4 leukemia = system: MOLT-4 leukemia
KM20L2 colon = system: KM20L2 colon
NCI-H460 lung = system: NCI-H460 lung
EKVX NSCLC = system: EKVX NSCLC
HOP-92 NSCLC = system: HOP-92 NSCLC
SF-295 CNS = system: SF-295 CNS
SK-MEL-5 melanoma = system: SK-MEL-5 melanoma
HOP-62 NSCLC = system: HOP-62 NSCLC
SK-MEL-28 melanoma = system: SK-MEL-28 melanoma
UACC-257 melanoma = system: UACC-257 melanoma
A549 NSCLC = system: A549 NSCLC
HCT-116 colon = system: HCT-116 colon
HCC-2998 colon = system: HCC-2998 colon
LOX IMVI melanoma = system: LOX IMVI melanoma
RXF 393 renal = system: RXF 393 renal
SF-268 CNS = system: SF-268 CNS
NCI-H522 lung = system: NCI-H522 lung
ACHN renal = system: ACHN renal
COLO 205 colon = system: COLO 205 colon
UACC-62 melanoma = system: UACC-62 melanoma
OVCAR-5 ovarian = system: OVCAR-5 ovarian
IGROV1 ovarian = system: IGROV1 ovarian
MALME-3M melanoma = system: MALME-3M melanoma
SF-539 CNS = system: SF-539 CNS
M14 melanoma = system: M14 melanoma
KM12 colon = system: KM12 colon
HT29 colon = system: HT29 colon
UO-31 renal = system: UO-31 renal
OVCAR-8 ovarian = system: OVCAR-8 ovarian
HL-60(TB) leukemia = system: HL-60(TB) leukemia
OVCAR-4 ovarian = system: OVCAR-4 ovarian
NCI-H23 lung = system: NCI-H23 lung
U251 CNS = system: U251 CNS
SK-OV-3 ovarian = system: SK-OV-3 ovarian
NCI-H226 lung = system: NCI-H226 lung
CAKI-1 renal = system: CAKI-1 renal
SK-MEL-2 melanoma = system: SK-MEL-2 melanoma
SW-620 colon = system: SW-620 colon
PC-3 prostate = system: PC-3 prostate
CCRF-CEM leukemia = system: CCRF-CEM leukemia
NCI/ADR-RES ovarian = system: NCI/ADR-RES ovarian
SNB-19 CNS = system: SNB-19 CNS
HS 578T breast = system: HS 578T breast
MDA-MB-231 breast = system: MDA-MB-231 breast
BT-549 breast = system: BT-549 breast
DU-145 prostate = system: DU-145 prostate
MDA-N = system: MDA-N
MDA-MB-435 = system: MDA-MB-435
MCF7 breast = system: MCF7 breast
T-47D breast = system: T-47D breast
786-0 renal = system: 786-0 renal
SN12C renal = system: SN12C renal
K-562 leukemia = system: K-562 leukemia
RPMI-8226 leukemia = system: RPMI-8226 leukemia
A498 renal = system: A498 renal

O=C(N/N=C/c1cc(Cl)cc(Cl)c1[O-])c1ccccc1O.O=C(N/N=C/c1cc(Cl)cc(Cl)c1[O-])c1ccccc1O.[Co+2]
TGI (SR leukemia): 0.532 µM | TGI (SNB-75 CNS): 18.9 µM | TGI (OVCAR-3 ovarian): 0.969 µM | TGI (TK-10 renal): 12 µM | TGI (HCT-15 colon): 13.8 µM | GI50 (MOLT-4 leukemia): 0.23 µM | TGI (MOLT-4 leukemia): 15.7 µM | GI50 (KM20L2 colon): 2.14 µM | TGI (KM20L2 colon): 7.43 µM | TGI (NCI-H460 lung): 11.1 µM | GI50 (EKVX NSCLC): 1.02 µM | TGI (EKVX NSCLC): 14.8 µM | GI50 (HOP-92 NSCLC): 0.471 µM | TGI (HOP-92 NSCLC): 3.18 µM | TGI (SF-295 CNS): 12.9 µM | TGI (SK-MEL-5 melanoma): 2.53 µM | TGI (HOP-62 NSCLC): 5.07 µM | TGI (SK-MEL-28 melanoma): 12.1 µM | TGI (UACC-257 melanoma): 14.6 µM | GI50 (A549 NSCLC): 0.532 µM | TGI (A549 NSCLC): 13.2 µM | GI50 (HCT-116 colon): 0.552 µM | TGI (HCT-116 colon): 14 µM | TGI (HCC-2998 colon): 6.63 µM | TGI (LOX IMVI melanoma): 11.8 µM | TGI (RXF 393 renal): 8.46 µM | TGI (SF-268 CNS): 21.2 µM | TGI (NCI-H522 lung): 1.63 µM | TGI (ACHN renal): 10.7 µM | GI50 (COLO 205 colon): 3.8 µM | TGI (COLO 205 colon): 18.3 µM | TGI (UACC-62 melanoma): 3.43 µM | TGI (OVCAR-5 ovarian): 6.27 µM | TGI (IGROV1 ovarian): 6.97 µM | GI50 (MALME-3M melanoma): 2.19 µM | TGI (MALME-3M melanoma): 16 µM | GI50 (SF-539 CNS): 0.486 µM | TGI (SF-539 CNS): 5.68 µM | TGI (M14 melanoma): 2.95 µM | GI50 (KM12 colon): 0.963 µM | TGI (KM12 colon): 19.1 µM | TGI (HT29 colon): 17.4 µM | TGI (UO-31 renal): 6.72 µM | TGI (OVCAR-8 ovarian): 11.6 µM | TGI (HL-60(TB) leukemia): 0.634 µM | TGI (OVCAR-4 ovarian): 7.07 µM | GI50 (NCI-H23 lung): 0.814 µM | TGI (NCI-H23 lung): 5.47 µM | TGI (U251 CNS): 3.73 µM | TGI (SK-OV-3 ovarian): 6.45 µM | TGI (NCI-H226 lung): 4.1 µM | TGI (CAKI-1 renal): 6.3 µM | GI50 (SK-MEL-2 melanoma): 0.37 µM | TGI (SK-MEL-2 melanoma): 3.74 µM | TGI (SW-620 colon): 16.8 µM

O=S(=O)(Nc1nc2ccccc2nc1Nc1ccc2ccccc2c1)c1ccccc1
TGI (SR leukemia): > 87.4 µM | TGI (SNB-75 CNS): > 73.6 µM | TGI (PC-3 prostate): > 37.2 µM | TGI (OVCAR-3 ovarian): 8.96 µM | TGI (CCRF-CEM leukemia): > 77.3 µM | TGI (TK-10 renal): > 82.7 µM | TGI (HCT-15 colon): > 57.5 µM | TGI (NCI/ADR-RES ovarian): > 100 µM | TGI (MOLT-4 leukemia): 65.1 µM | TGI (NCI-H460 lung): 28.8 µM | TGI (EKVX NSCLC): > 100 µM | TGI (HOP-92 NSCLC): 51.3 µM | TGI (SF-295 CNS): 47.3 µM | TGI (SK-MEL-5 melanoma): 42.6 µM | TGI (SNB-19 CNS): > 100 µM | TGI (HS 578T breast): > 74.5 µM | TGI (HOP-62 NSCLC): 30.8 µM | TGI (SK-MEL-28 melanoma): > 100 µM | TGI (UACC-257 melanoma): > 100 µM | TGI (A549 NSCLC): > 100 µM | TGI (HCT-116 colon): 24.8 µM | TGI (MDA-MB-231 breast): > 100 µM | TGI (BT-549 breast): > 80.1 µM | TGI (HCC-2998 colon): 29 µM | TGI (LOX IMVI melanoma): 48.8 µM | TGI (RXF 393 renal): 86.1 µM | TGI (SF-268 CNS): > 67.7 µM | TGI (NCI-H522 lung): 39.6 µM | TGI (ACHN renal): > 100 µM | TGI (COLO 205 colon): 26.3 µM | TGI (UACC-62 melanoma): 43.8 µM | TGI (OVCAR-5 ovarian): 81.2 µM | TGI (IGROV1 ovarian): > 57.9 µM | TGI (MALME-3M melanoma): > 100 µM | TGI (DU-145 prostate): > 100 µM | TGI (MDA-N): > 100 µM | TGI (SF-539 CNS): 45.8 µM | TGI (MDA-MB-435): > 100 µM | TGI (M14 melanoma): > 57.2 µM | TGI (KM12 colon): > 59.3 µM | TGI (HT29 colon): 25.1 µM | TGI (MCF7 breast): > 100 µM | TGI (T-47D breast): > 100 µM | TGI (UO-31 renal): 39.5 µM | TGI (OVCAR-8 ovarian): > 100 µM | TGI (HL-60(TB) leukemia): 68.9 µM | TGI (OVCAR-4 ovarian): > 44.9 µM | TGI (786-0 renal): > 100 µM | TGI (NCI-H23 lung): 41.3 µM | TGI (SN12C renal): > 68.9 µM | TGI (K-562 leukemia): > 100 µM | TGI (U251 CNS): > 100 µM | TGI (SK-OV-3 ovarian): > 100 µM | TGI (NCI-H226 lung): > 84.2 µM | TGI (RPMI-8226 leukemia): > 47 µM | TGI (CAKI-1 renal): 99 µM | TGI (SK-MEL-2 melanoma): 14 µM | TGI (SW-620 colon): > 100 µM | TGI (A498 renal): > 100 µM
